The values that follow come from patent publication US9988381B2, “Five-member-heterocycle fused pyridine compounds, method of producing the same, and use thereof” (SHANGHAI INSTITUTE OF MATERIA MEDICA, CHINESE ACADEMY OF …, priority 2013, dated 2018).

Test [1] has as its target T1, c-Met kinase domain recombinant protein (Homo sapiens, UniProt P08581).
T1 construct: 50 μL diluted solution of c-Met kinase domain recombinant protein in reaction buffer was added to initiate the reaction
As to the kind of experiment: biochemical. The following applies: read-out: Inhibition rate at 10 μM (%). As to the method: Enzymatic reaction substrate Poly(Glu,Tyr)4:1 was diluted to 20 μg/mL in potassium ion free PBS (10 mM sodium phosphate buffer, 150 mM NaCl, pH7.2-7.4), microplate was coated with this solution at 125 μL per well, and reacted at 37° C. for 12-16 hours. Liquid in wells was discarded. Plate washing: the plate was washed 3 times for 5 minutes each with 200 μL per well of T-PBS (potassium ion free PBS containing 0.1% Tween-20).
Into each well was added 49 μL diluted ATP solution in reaction buffer (50 mM HEPES pH 7.4, 50 mM MgCl2, 0.5 mM MnCl2, 0.2 mM Na3VO4, 1 mM DTT), and 1 μL per well of compound to be tested was added, then 50 μL diluted solution of c-Met kinase domain recombinant protein in reaction buffer was added to initiate the reaction, each test was setup with two wells of ATP free control. Reaction was performed in a 37° C. shaker (100 rpm) for 1 hour. Liquid in the wells was discarded, and the plate was washed three times with T-PBS.
Antibody PY99 was added at 100 μL per well (the antibody was 1:500 diluted in T-PBS containing 5 mg/mL BSA), incubated in a 37° C. shaker for 0.5 hour. Liquid in the wells was discarded, and the plate was washed three times with T-PBS.
Goat anti mouse secondary antibody labeled with horseradish peroxidase was added at 100 μL per well (the antibody was 1:2000 diluted in T-PBS containing 5 mg/mL BSA), incubated in a 37° C. shaker for 0.5 hour. Liquid in the wells was discarded, and the plate was washed three times with T-PBS.
Reaction was terminated by adding 50 μL per well of 2M H2SO4, the plate was read at 490 nm using a VERSAmax microplate reader with tunable wavelength.
(§1) Inhibition rate of the sample was calculated using the following equation: […]

In test [2] the target is T1, c-Met kinase domain recombinant protein. As to the kind of experiment: biochemical. The following applies: for inhibition at 0.1 µM: read-out: Average inhibition rate at 0.1 μM (%); for inhibition at 1 µM: read-out: Average inhibition rate at 1 μM (%); for inhibition at 10 µM: read-out: Average inhibition rate at 10 μM (%). As to the method: Enzymatic reaction substrate Poly(Glu,Tyr)4:1 was diluted to 20 μg/mL in potassium ion free PBS (10 mM sodium phosphate buffer, 150 mM NaCl, pH7.2-7.4), microplate was coated with this solution at 125 μL per well, and reacted at 37° C. for 12-16 hours. Liquid in wells was discarded, then the plate was washed 3 times for 5 minutes each with 200 μL per well of T-PBS (PBS containing 0.1% Tween-20).
Into each well was added 50 μL diluted ATP solution in reaction buffer (50 mM HEPES pH 7.4, 50 mM MgCl2, 0.5 mM MnCl2, 0.2 mM Na3VO4, 1 mM DTT), the final concentration was 5 μM. Test compound was diluted in DMSO to proper concentration, added at 1 μL per well or corresponding level of DMSO (negative control wells), then 49 μL diluted solution of c-Met kinase domain recombinant protein in reaction buffer was added to initiate the reaction, each test was setup with two wells of ATP free control. Reaction was performed in a 37° C. shaker (100 rpm) for 1 hour. The plate was washed three times with T-PBS. Primary antibody PY99 diluted solution was added at 100 μL per well, incubated in a 37° C. shaker for 0.5 hour.
The plate was washed three times with T-PBS. Goat anti mouse secondary antibody labeled with horseradish peroxidase was added at 100 μL per well, incubated in a 37° C. shaker for 0.5 hour. The plate was washed three times with T-PBS. […] Reaction was terminated by adding 50 μL per well of 2M H2SO4, the plate was read at 490 nm using a SPECTRA MAX 190 microplate reader with tunable wavelength.
as §1
IC50 was calculated by fitting the data for a four parameter fit using inhibition curve.

Where two headings read alike, the source gives them in different places. A value given as a limit tells only on which side of the number the result lay.

T1 sequence (P08581 1078-1345 limits assumed): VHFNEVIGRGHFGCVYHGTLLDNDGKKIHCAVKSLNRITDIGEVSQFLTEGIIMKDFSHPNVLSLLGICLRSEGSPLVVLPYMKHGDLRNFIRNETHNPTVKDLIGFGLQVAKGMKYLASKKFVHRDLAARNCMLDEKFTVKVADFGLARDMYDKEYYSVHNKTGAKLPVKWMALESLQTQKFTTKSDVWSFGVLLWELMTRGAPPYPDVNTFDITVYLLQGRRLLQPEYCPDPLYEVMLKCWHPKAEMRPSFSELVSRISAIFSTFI

Turning to `CC(C)(C)OC(=O)N1CC=C(c2cnc3cnn(S(=O)(=O)c4cnc5ccccn45)c3c2)CC1` [Example 35, 1-(imidazo[1,2-a]pyridine-3-sulfonyl)-6-[(1-t-butoxycarbonyl)-4-(1,2,3,6-tetrahydropyridinyl)]-1-H-pyrazolo[4,3-b]pyridine], the inhibition (usually how much of the control response was suppressed) at 10 µM in test [1] turned out to be 62.5%. In addition, in test [2], the inhibition at 0.1 µM stood at 51.1%, the inhibition at 1 µM was found to be 53.2% and the inhibition at 10 µM came out at 62.5%.
Turning to `O=S(=O)(c1cnc2ccccn12)n1ncc2ncc(-c3ccc4c(c3)OCCO4)cc21` [Example 36, 1-(imidazo[1,2-a]pyridine-3-sulfonyl)-6-[6-(1,4-benzodioxanyl)]-1-H-pyrazolo[4,3-b]pyridine], in test [1], the inhibition at 10 µM stood at 66.3%. Moreover, in test [2], the inhibition at 0.1 µM came out at 45.6%, the inhibition at 1 µM was found to be 60% and the inhibition at 10 µM was determined as 66.3%.
Take `O=S(=O)(c1cnc2ccccn12)n1ncc2ncc(-c3ccc(CN4CCOCC4)cc3)cc21` [Example 38, 1-(imidazo[1,2-a]pyridine-3-sulfonyl)-6-(4-morpholinomethylphenyl)-1-H-pyrazolo[4,3-b]pyridine]: in test [1], the inhibition at 10 µM is 87.1%. In test [2], the inhibition at 0.1 µM amounted to 63.2%, the inhibition at 1 µM amounted to 63.9% and the inhibition at 10 µM was 87.1%.
For the compound `CC(=O)c1ccc(-c2cnc3cnn(S(=O)(=O)c4cnc5ccccn45)c3c2)cc1` [Example 40, 1-(imidazo[1,2-a]pyridine-3-sulfonyl)-6-(4-acetylphenyl)-1-H-pyrazolo[4,3-b]pyridine], the inhibition at 10 µM in test [1] was 66%. In test [2], the inhibition at 0.1 µM was determined as 45.7%, the inhibition at 1 µM was determined as 57.4% and the inhibition at 10 µM came out at 66%.
On to `CN(C)C(=O)c1ccc(-c2cnc3cnn(S(=O)(=O)c4cnc5ccccn45)c3c2)cc1` [Example 41, 1-(imidazo[1,2-a]pyridine-3-sulfonyl)-6-(4-dimethylaminocarbonylphenyl)-1-H-pyrazolo[4,3-b]pyridine], for which the inhibition at 10 µM in test [1] was 68.7%. In test [2], the inhibition at 0.1 µM is 45.1%, the inhibition at 1 µM was determined as 54.6% and the inhibition at 10 µM is 68.7%.
Turning to `CN(C)c1ccc(-c2cnc3cnn(S(=O)(=O)c4cnc5ccccn45)c3c2)cc1` [Example 42, 1-(imidazo[1,2-a]pyridine-3-sulfonyl)-6-(4-dimethylaminophenyl)-1-H-pyrazolo[4,3-b]pyridine], the inhibition at 10 µM in test [1] came to 67.5%. Besides, in test [2], the inhibition at 0.1 µM is 45.5%, the inhibition at 1 µM worked out at 58.4% and the inhibition at 10 µM amounted to 67.5%.
As to `COc1ccc(OC)c(-c2cnc3cnn(S(=O)(=O)c4cnc5ccccn45)c3c2)c1` [Example 43, 1-(imidazo[1,2-a]pyridine-3-sulfonyl)-6-(2,5-dimethoxyphenyl)-1-H-pyrazolo[4,3-b]pyridine], the inhibition at 10 µM in test [1] came to 58.4%. Further, in test [2], the inhibition at 0.1 µM is 23.1%, the inhibition at 1 µM was 47.6% and the inhibition at 10 µM turned out to be 68.7%.
For `CC(C)(C)OC(=O)N1CCC(n2cc(-c3cnc4cnn(S(=O)(=O)c5cnc6ncccn56)c4c3)cn2)CC1` [Example 52, 1-(imidazo[1,2-a]pyrimidine-3-sulfonyl)-6-{{1-[(1-t-butoxycarbonyl)-4-piperidinyl]}-4-pyrazolyl}-1-H-pyrazolo[4,3-b]pyridine], in that order: 54.5%, 24.5%, 50.3% and 54.5%.
In the same order, the values of `O=C(c1ccc(C(F)(F)F)cc1)N1CCC(n2cc(-c3cnc4cnn(S(=O)(=O)c5cnc6ccccn56)c4c3)cn2)CC1` [Example 58, 1-(imidazo[1,2-a]pyridine-3-sulfonyl)-6-{{1-[(1-p-trifluoromethylbenzoyl)-4-piperidinyl]}-4-pyrazolyl}-1-H-pyrazolo[4,3-b]pyridine] are 58.9%, 52.8%, 55.7% and 57.4%.
On to `CC(C)(C)OC(=O)N1CCC(n2cc(-c3cnc4cnn(S(=O)(=O)c5cnc6ccc(-c7cnn(C8CCN(C(=O)OC(C)(C)C)CC8)c7)nn56)c4c3)cn2)CC1` [Example 62, 1-{(6-{{1-[(1-t-butoxycarbonyl)-4-piperidinyl]}-4-pyrazolyl}-imidazo[1,2-b]pyridazine)-3-sulfonyl}-6-{{1-[(1-t-butoxycarbonyl)-4-piperidinyl]}-4-pyrazolyl}-1-H-pyrazolo[4,3-b]pyridine], for which the inhibition at 10 µM in test [1] came out at 62.6%. In test [2], the inhibition at 0.1 µM worked out at 73.2%, the inhibition at 1 µM was 73.2% and the inhibition at 10 µM stood at 80%.
Take `O=S(=O)(c1cnc2ccc(C(F)(F)F)cn12)n1ncc2ncc(-c3cnn(C4CCNCC4)c3)cc21` [Example 65]: the inhibition at 10 µM in test [1] worked out at 79.3%. For the same compound, in test [2], the inhibition at 0.1 µM stood at 60.8%, the inhibition at 1 µM was 65.1% and the inhibition at 10 µM turned out to be 69.8%.
For `CC(C)(C)OC(=O)N1CCC(n2cc(-c3cnc4cnn(S(=O)(=O)c5cnc6ccc(-c7cnn(C8CCN(C(=O)OC(C)(C)C)CC8)c7)cn56)c4c3)cn2)CC1` [Example 68, 1-{(6-{{1-[(1-t-butoxycarbonyl)-4-piperidinyl]}-4-pyrazolyl}-imidazo[1,2-a]pyridine)-3-sulfonyl}-6-{{1-[(1-t-butoxycarbonyl)-4-piperidinyl]}-4-pyrazolyl}-1-H-pyrazolo[4,3-b]pyridine], in that order: 69.8%, 50.2%, 55.8% and 62%.
In the same order, the values of `CC(C)N1CCC(n2cc(-c3cnc4cnn(S(=O)(=O)c5cnc6ccc(C(F)(F)F)cn56)c4c3)cn2)CC1` [Example 69] are 79.9%, 52.3%, 57.7% and 59.6%.
On to `Cn1cc(-c2cnc3cnn(S(=O)(=O)c4cnc5ccc(Br)cn45)c3c2)cn1` [Example 70, 1-[(6-bromo-imidazo[1,2-a]pyridine)-3-sulfonyl]-6-[(1-methyl)-4-pyrazolyl]-1-H-pyrazolo[4,3-b]pyridine], for which the inhibition at 10 µM is 68.2% in test [1] and 79.3% in test [2]. Also, in test [2], the inhibition at 1 µM is 44.7%.
Turning to `Cn1cc(-c2cnc3cnn(S(=O)(=O)c4cnc5ccc(-c6ccccc6)cn45)c3c2)cn1` [Example 71, 1-[(6-phenyl-imidazo[1,2-a]pyridine)-3-sulfonyl]-6-[(1-methyl)-4-pyrazolyl]-1-H-pyrazolo[4,3-b]pyridine], the inhibition at 10 µM in test [1] amounted to 62%. Further, in test [2], the IC50 (as a rule, the concentration needed to halve the response being measured) amounted to 100 ± 10 pM; the inhibition at 0.1 µM is 68.5%; the inhibition at 1 µM is 73.4%; the inhibition at 10 µM is 83.8%.
In the case of `Cn1cc(-c2cnc3cnn(S(=O)(=O)c4cnc5ccc(-c6cncnc6)cn45)c3c2)cn1` [Example 74, 1-{[6-(5-pyrimidine)-imidazo[1,2-a]pyridine]-3-sulfonyl}-6-[(1-methyl)-4-pyrazolyl]-1-H-pyrazolo[4,3-b]pyridine], the values for the inhibition at 10 µM in test [1] and in test [2] were above 67.6% and 12.1%, respectively.
As to `Cn1cc(-c2cnc3cnn(S(=O)(=O)c4cnc5ccc(-c6ccc(N7CCOCC7)cc6)cn45)c3c2)cn1` [Example 75, 1-{[6-(4-morpholinylphenyl)-imidazo[1,2-a]pyridine]-3-sulfonyl}-6-[(1-methyl)-4-pyrazolyl]-1-H-pyrazolo[4,3-b]pyridine], the inhibition at 10 µM in test [1] was above 77.3%. Further, in test [2], the inhibition at 0.1 µM amounted to 74.6%, the inhibition at 1 µM stood at 75.6% and the inhibition at 10 µM turned out to be 83.1%.
